Test results taken from ChEMBL document CHEMBL1201862, “PubChem BioAssay data set” (2004).
Activity calls are given as the source filed them.

Columns and labels:
[1] = viability loss in THP-1 monocytes – THP-1 cells, cytotoxicity control for Vif-APOBEC3G degradation inhibitor project, dose response (AID 1117359); assay type: functional; conditions: THP-1
[2] = target: T1, Polyadenylate-binding protein 1 (Homo sapiens, UniProt P11940); assay: MLLE binding blockers, Cy5 peptide tracer – biochemical, fluorescence polarization, Cy5-PAM2 peptide, secondary, miRNA deadenylation inhibitor project, dose response (AID 602260); assay type: functional; conditions: read-out: IC50_Mean
[3] = target: T1, Polyadenylate-binding protein 1; assay: MLLE domain peptide-binding blockers, IC50 – biochemical, fluorescence polarization, FITC-PAM2 peptide, dose response (AID 602259); assay type: functional; conditions: read-out: IC50_Mean
[4] = target: Glyceraldehyde-3-phosphate dehydrogenase (Homo sapiens, UniProt P04406)
[5] = target: T2, Corticotropin-releasing factor receptor 2/Corticotropin-releasing factor-binding protein (Homo sapiens, UniProt P24387+Q13324); assay: activators of CRF receptor 2 with binding protein – uHTS hits, confirmation (AID 602473); assay type: functional; conditions: read-out: EC50_Mean
T2 sequence (Q13324 whole entry): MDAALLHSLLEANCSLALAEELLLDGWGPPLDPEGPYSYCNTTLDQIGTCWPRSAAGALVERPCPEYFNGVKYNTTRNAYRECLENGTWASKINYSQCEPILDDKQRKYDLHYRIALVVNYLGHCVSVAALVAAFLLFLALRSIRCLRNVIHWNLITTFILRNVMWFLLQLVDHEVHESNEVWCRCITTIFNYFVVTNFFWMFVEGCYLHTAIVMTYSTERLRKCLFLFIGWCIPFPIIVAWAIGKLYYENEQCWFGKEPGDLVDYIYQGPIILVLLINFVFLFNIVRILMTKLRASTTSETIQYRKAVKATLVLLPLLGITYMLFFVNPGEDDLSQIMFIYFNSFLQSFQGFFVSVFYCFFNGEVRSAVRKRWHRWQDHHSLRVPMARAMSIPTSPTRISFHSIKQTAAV
T2 sequence (P24387 whole entry): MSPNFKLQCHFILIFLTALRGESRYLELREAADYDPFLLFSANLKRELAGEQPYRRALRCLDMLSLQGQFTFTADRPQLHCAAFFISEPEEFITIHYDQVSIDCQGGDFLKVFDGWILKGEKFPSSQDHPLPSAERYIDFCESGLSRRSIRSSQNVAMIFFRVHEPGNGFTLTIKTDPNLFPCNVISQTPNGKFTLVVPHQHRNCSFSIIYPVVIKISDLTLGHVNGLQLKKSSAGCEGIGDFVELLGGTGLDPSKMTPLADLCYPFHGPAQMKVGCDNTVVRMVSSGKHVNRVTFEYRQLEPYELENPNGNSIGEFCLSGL

[6] = target: Estrogen receptor beta (Homo sapiens, UniProt Q92731);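 also: recombinant ER-beta bound to coactivator SRC1 peptide in presence of estradiol agonist; inhibitors block coactivator peptide binding and lower the FRET signal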
[7] = microbe, parasite or virus in culture; assay type: functional; conditions: Mycobacterium tuberculosis
[8] = target: T3, Leucine aminopeptidase (Plasmodium falciparum 3D7, UniProt Q8IL11); assay: P. falciparum M17LAP inhibitors, primary screen, biochemical, fluorogenic H-Leu-NHMec substrate, 1536-well (AID 1619); assay type: functional
T3 sequence (Q8IL11 whole entry): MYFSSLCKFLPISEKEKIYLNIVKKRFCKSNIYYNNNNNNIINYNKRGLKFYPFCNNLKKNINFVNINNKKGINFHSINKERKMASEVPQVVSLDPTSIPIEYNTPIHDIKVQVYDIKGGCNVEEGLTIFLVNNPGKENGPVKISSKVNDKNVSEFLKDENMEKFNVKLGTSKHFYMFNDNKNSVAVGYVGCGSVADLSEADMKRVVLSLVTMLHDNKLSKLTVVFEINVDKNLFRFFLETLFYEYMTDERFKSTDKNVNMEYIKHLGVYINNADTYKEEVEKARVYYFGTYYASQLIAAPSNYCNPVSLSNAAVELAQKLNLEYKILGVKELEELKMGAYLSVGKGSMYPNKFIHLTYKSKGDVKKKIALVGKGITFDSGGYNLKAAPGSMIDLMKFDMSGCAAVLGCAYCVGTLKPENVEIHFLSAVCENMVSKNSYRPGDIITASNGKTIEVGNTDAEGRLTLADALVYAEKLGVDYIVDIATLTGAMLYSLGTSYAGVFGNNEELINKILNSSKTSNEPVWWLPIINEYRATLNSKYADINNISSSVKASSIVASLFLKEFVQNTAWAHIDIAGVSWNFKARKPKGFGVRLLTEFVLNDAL

T1 sequence (P11940 whole entry, the tested form may be a part): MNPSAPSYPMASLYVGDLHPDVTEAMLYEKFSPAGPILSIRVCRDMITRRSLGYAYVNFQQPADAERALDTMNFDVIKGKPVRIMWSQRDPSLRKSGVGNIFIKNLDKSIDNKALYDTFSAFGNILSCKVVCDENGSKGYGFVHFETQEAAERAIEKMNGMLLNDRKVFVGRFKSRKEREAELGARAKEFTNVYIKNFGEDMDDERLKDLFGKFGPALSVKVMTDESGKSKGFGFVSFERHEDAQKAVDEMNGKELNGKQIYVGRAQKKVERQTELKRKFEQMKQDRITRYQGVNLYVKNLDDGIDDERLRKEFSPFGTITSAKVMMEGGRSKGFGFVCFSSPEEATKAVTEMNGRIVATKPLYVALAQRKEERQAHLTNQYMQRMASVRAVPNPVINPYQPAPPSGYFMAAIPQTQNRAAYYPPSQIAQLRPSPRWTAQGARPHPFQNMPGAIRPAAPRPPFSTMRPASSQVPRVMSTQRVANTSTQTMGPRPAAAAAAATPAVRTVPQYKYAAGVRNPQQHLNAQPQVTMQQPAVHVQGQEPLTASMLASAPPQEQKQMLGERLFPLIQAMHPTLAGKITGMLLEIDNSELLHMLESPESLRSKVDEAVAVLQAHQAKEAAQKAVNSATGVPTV
Chain of Glyceraldehyde-3-phosphate dehydrogenase (P04406 whole entry): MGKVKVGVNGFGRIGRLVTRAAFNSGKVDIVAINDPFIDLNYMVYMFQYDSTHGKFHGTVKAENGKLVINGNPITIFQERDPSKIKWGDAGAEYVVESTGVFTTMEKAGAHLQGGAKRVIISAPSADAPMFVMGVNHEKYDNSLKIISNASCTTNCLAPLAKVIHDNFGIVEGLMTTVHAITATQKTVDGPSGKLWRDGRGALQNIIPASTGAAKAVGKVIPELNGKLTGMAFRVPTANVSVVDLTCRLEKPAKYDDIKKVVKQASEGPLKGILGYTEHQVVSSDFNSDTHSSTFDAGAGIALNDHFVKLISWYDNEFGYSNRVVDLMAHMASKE
Chain of Estrogen receptor beta (Q92731 whole entry): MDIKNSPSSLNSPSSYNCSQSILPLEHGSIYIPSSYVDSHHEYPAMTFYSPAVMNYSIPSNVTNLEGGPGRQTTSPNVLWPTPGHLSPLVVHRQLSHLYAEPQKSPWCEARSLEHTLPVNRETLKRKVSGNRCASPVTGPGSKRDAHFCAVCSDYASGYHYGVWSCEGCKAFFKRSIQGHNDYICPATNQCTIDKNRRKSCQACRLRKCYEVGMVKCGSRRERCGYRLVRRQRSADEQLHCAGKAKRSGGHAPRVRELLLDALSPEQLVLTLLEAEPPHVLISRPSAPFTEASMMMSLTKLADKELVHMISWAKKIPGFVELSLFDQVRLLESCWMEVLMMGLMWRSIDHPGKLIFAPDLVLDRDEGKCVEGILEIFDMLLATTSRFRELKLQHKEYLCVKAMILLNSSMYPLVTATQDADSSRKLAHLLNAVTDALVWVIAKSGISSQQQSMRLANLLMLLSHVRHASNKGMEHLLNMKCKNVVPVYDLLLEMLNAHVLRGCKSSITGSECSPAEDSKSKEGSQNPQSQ

SMILES: COc1cccc(/C=C2\SC(N)=NC2=O)c1OS(=O)(=O)c1ccccc1
- CC50 [1]: > 40 µM (active)

SMILES: CS(=O)(=O)c1cccc(C(=O)Nc2nnc(C3=COCCO3)o2)c1
- IC50 [2]: > 66 µM (inactive)
- IC50 [3]: > 66 µM (inactive)

SMILES: O=C(O)CCCCC(=O)c1ccc(CC(=O)O)s1
- IC50 [4]: > 100 µM (not active)

SMILES: COC(=O)c1scc2c(O)cc(C(F)(F)F)nc12
- IC50 [2]: > 66 µM (inactive)
- IC50 [3]: 35.7 µM (inactive)
- EC50 [5]: 5.75 µM (active)

SMILES: N#Cc1cc2c(=O)n3ccccc3nc2n(CCCn2ccnc2)c1=N
- IC50 [6]: > 50 µM (not active)

SMILES: Cc1ccc(S(=O)(=O)NC(CC(C)C)C(=O)N2CCN(C/C=C/c3ccccc3)CC2)cc1 (configuration not stated)
- CC50 [7]: > 40 µM (active)
- CC50 [1]: > 40 µM (active)

SMILES: CCOc1ccc(C(=O)CN2CCN(S(=O)(=O)c3ccc(OC)cc3)CC2)cc1
- IC50 [8]: 73.5 µM (active)

SMILES: O=C1NC(=S)N/C1=C\c1ccc(-c2cc([N+](=O)[O-])ccc2Br)o1
- IC50 [4]: > 100 µM (not active)

SMILES: Clc1ccc(-c2nc3cnccn3c2Nc2ccc3c(c2)OCO3)cc1
- CC50 [1]: 19.9 µM (active)

SMILES: COc1ccc(CCN(C)C(=O)COC(=O)/C=C/c2ccc(C)o2)cc1OC
- CC50 [1]: > 40 µM (active)

SMILES: CCC(=O)NC(=S)Nc1c(C)cc(Br)cc1C
- IC50 [2]: > 66 µM (inactive)
- IC50 [3]: > 66 µM (inactive)

SMILES: COc1ccccc1-c1c(C)nn2c(O)c(Cc3ccccc3)c(C)nc12
- CC50 [1]: > 40 µM (active)
